Target: human BACE1 (Homo sapiens, UniProt P56817)
Experiment: BACE1 fluorescent kinetic assay (cleavage of peptide substrate WABC-6)
Assay type: biochemical
Details: 10 nM enzyme, 25 μM substrate WABC-6, pH 4.5, room temperature
Description: Evaluation of BACE1 Binding Affinity of Test Compounds
Fluorescent Kinetic Assays
Dilution and mixing steps: total reaction volume: 100 μL
100 μM substrate dilution in 1×PBS was prepared, and
Fluorescence Readings: Readings at λex 320 nm and λem 420 nm are taken every 40 sec for 30 min at room temperature and the linear slope for substrate cleavage rate (vi) determined.

Chain of human BACE1 (P56817 46-501): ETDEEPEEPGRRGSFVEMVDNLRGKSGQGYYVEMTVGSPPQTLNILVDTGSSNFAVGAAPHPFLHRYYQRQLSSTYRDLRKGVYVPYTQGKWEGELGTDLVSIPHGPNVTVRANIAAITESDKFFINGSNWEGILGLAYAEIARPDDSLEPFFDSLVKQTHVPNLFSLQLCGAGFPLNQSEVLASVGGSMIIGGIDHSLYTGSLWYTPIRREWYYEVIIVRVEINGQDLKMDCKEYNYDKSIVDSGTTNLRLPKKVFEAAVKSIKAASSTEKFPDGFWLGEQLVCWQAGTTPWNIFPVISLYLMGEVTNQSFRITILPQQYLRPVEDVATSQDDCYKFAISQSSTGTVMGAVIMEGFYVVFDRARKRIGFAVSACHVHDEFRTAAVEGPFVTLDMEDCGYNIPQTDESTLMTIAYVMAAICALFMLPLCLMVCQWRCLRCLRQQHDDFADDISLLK

Molecule	IC50 (Activity Table, Examples 1-108) [nM]	IC50 (Examples 109-141) [nM]
C=CC[C@@H](C)c1cccc(C2(c3ccc(OC(F)F)cc3)N=C(N)N(C)C2=O)c1 (stereo partly drawn) [Example 69, 2-amino-4-(4-(difluoromethoxy)phenyl)-1-methyl-4-(3-((R)-pent-4-en-2-yl)phenyl)-1H-imidazol-5(4H)-one]	110 to 1000	
CN1C(=O)C(c2ccc(OC(F)F)cc2)(c2ccc(F)c(OCCC(F)F)c2)N=C1N (stereo not shown) [Example 92, 2-Amino-5-[4-(difluoromethoxy)phenyl]-5-[3-(3,3-difluoropropoxy)-4-fluorophenyl]-3-methyl-3,5-dihydro-4H-imidazol-4-one]	< 100	
CN1C(=O)C(c2ccc(OC(F)F)cc2)(c2cccc(NC(=O)C3CC3)c2)N=C1N (stereo not shown) [Example 28]	110 to 1000	
CN1C(=O)C(c2ccc(OC(F)F)cc2)(c2cccc(N)c2)N=C1N (stereo not shown) [Example 115, 2-amino-5-(3-aminophenyl)-5-[4-(difluoromethoxy)phenyl]-3-methyl-3,5-dihydro-4H-imidazol-4-one]		> 1000
C/C=C\c1cc([C@@]2(c3ccc(OC(F)F)cc3)N=C(N)N(C)C2=O)ccc1F [Example 76B, (5R)-2-amino-5-[4-(difluoromethoxy)phenyl]-5-{4-fluoro-3-[(1Z)-prop-1-en-1-yl]phenyl}-3-methyl-3,5-dihydro-4H-imidazol-4-one]	> 1000	
CCNCc1cccc(C2(c3ccc(OC(F)F)cc3)N=C(N)N(C)C2=O)c1 (stereo not shown) [Example 63, 2-amino-5-[4-(difluoromethoxy)phenyl]-5-{3-[(ethylamino)methyl]phenyl}-3-methyl-3,5-dihydro-4H-imidazol-4-one]	110 to 1000	
CCC(=O)Nc1cccc(C2(c3ccc(OC(F)F)cc3)N=C(N)N(C)C2=O)c1 (stereo not shown) [Example 21]	110 to 1000	
CCCC(=O)Nc1cccc(C2(c3ccc(OC(F)F)cc3)N=C(N)N(C)C2=O)c1 (stereo not shown) [Example 22]	110 to 1000	
CN1C(=O)C(c2ccc(OC(F)F)cc2)(c2cccc(NC(=O)c3ccccc3)c2)N=C1N (stereo not shown) [Example 35]	110 to 1000	
CCOC/C=C(\C)c1cccc(C2(c3ccc(OC(F)F)cc3)N=C(N)N(C)C2=O)c1 (stereo not shown) [Example 109, 2-amino-5-[4-(difluoromethoxy)phenyl]-5-{3-[(1E)-3-ethoxy-1-methylprop-1-en-1-yl]phenyl}-3-methyl-3,5-dihydro-4H-imidazol-4-one]		110 to 1000
CN1C(=O)C(c2ccc(OC(F)F)cc2)(c2cccc(NC(=O)c3ccc4c(c3)CCO4)c2)N=C1N (stereo not shown) [Example 117, N-(3-{2-amino-4-[4-(difluoromethoxy)phenyl]-1-methyl-5-oxo-4,5-dihydro-1H-imidazol-4-yl}phenyl)-2,3-dihydro-1-benzofuran-5-carboxamide]		< 100
CCOCCC#Cc1cccc(C2(c3ccc(OC(F)F)cc3)N=C(N)N(C)C2=O)c1 (stereo not shown) [Example 73, 2-Amino-5-[4-(difluoromethoxy)phenyl]-5-[3-(4-ethoxybut-1-yn-1-yl)phenyl]-3-methyl-3,5-dihydro-4H-imidazol-4-one]	< 100	
CC=CC(=O)Nc1cccc(C2(c3ccc(OC(F)F)cc3)N=C(N)N(C)C2=O)c1 (stereo not shown) [Example 30]	110 to 1000	
CN(C)Cc1cccc(C2(c3ccc(OC(F)F)cc3)N=C(N)N(C)C2=O)c1 (stereo not shown) [Example 62, 2-amino-5-[4-(difluoromethoxy)phenyl]-5-{3-[(dimethylamino)-methyl]phenyl}-3-methyl-3,5-dihydro-4H-imidazol-4-one]	> 1000	
C/C=C\c1cc(C2(c3ccc(OC(F)F)cc3)N=C(N)N(C)C2=O)ccc1F (stereo not shown) [Example 75B, 2-amino-5-[4-(difluoromethoxy)phenyl]-5-{4-fluoro-3-[(1Z)-prop-1-en-1-yl]phenyl}-3-methyl-3,5-dihydro-4H-imidazol-4-one]	110 to 1000	
C=CC[C@@H](C)Oc1cccc([C@@]2(c3ccc(OC(F)F)cc3)N=C(N)N(C)C2=O)c1 [Example 10D, (R)-2-amino-4-(4-(difluoromethoxy)phenyl)-1-methyl-4-(3-((R)-pent-4-en-2-yloxy)phenyl)-1H-imidazol-5(4H)-one]	< 100	
CCOCCC(C)c1cccc(C2(c3ccc(OC(F)F)cc3)N=C(N)N(C)C2=O)c1 (stereo not shown) [Example 112, 2-amino-5-[4-(difluoromethoxy)phenyl]-5-[3-(3-ethoxy-1-methylpropyl)phenyl]-3-methyl-3,5-dihydro-4H-imidazol-4-one]		> 1000
CCCCCCc1cccc(C2(c3ccc(OC(F)F)cc3)N=C(N)N(C)C2=O)c1 (stereo not shown) [Example 126, 2-amino-5-[4-(difluoromethoxy)phenyl]-5-(3-hexylphenyl)-3-methyl-3,5-dihydro-4Himidazol-4-one]		110 to 1000
CN1C(=O)[C@@](c2ccc(OC(F)F)cc2)(c2cccc(C#CCCCF)c2)N=C1N [Example 19E, (5R)-2-amino-5-[4-(difluoromethoxy)phenyl]-5-[3-(5-fluoropent-1-yn-1-yl)phenyl]-3-methyl-3,5-dihydro-4H-imidazol-4-one]	< 100	
CN1C(=O)C(c2ccc(OC(F)F)cc2)(c2cccc(C#CCCCCl)c2)N=C1N (stereo not shown) [Example 20B, 2-amino-5-[3-(5-chloropent-1-yn-1-yl)-phenyl]-5-[4-(difluoromethoxy)phenyl]-3-methyl-3,5-dihydro-4H-imidazol-4-one]	< 100	
CN1C(=O)C(c2ccc(OC(F)F)cc2)(c2cccc(C3CC(=CCO)C3)c2)N=C1N (stereo not shown) [Example 56, 2-amino-5-[4-(difluoromethoxy)phenyl]-5-{3-[3-(2-hydroxyethylidene)cyclobutyl]phenyl}-3-methyl-3,5-dihydro-4H-imidazol-4-one]	> 1000	
CN1C(=O)C(c2ccc(OC(F)F)cc2)(c2cccc(NC(=O)c3coc4ccccc34)c2)N=C1N (stereo not shown) [Example 40]	< 100	
methyl[3-(3-{2-amino-4-[4-(difluoromethoxy)phenyl]-1-methyl-5-oxo-4,5-dihydro-1H-imidazol-4-yl}phenyl)-1-methoxycyclobutyl]acetate-methyl[3-(3-{2-amino-4-[4-(difluoromethoxy)phenyl]-1-methyl-5-oxo-4,5-dihydro-1H-imidazol-4-yl}phenyl)cyclobutylidene]acetate (3:1) [Example 55]	110 to 1000	
COC/C=C(\C)c1cccc(C2(c3ccc(OC(F)F)cc3)N=C(N)N(C)C2=O)c1 (stereo not shown) [Example 71, (E)-2-amino-4-(4-(difluoromethoxy)phenyl)-4-(3-(4-methoxybut-2-en-2-yl)phenyl)-1-methyl-1H-imidazol-5(4H)-one]	110 to 1000	
CC=Cc1cc(C2(c3ccc(OC(F)F)cc3)N=C(N)N(C)C2=O)ccc1F (stereo not shown) [Example 75A, 2-amino-5-[4-(difluoromethoxy)phenyl]-5-(4-fluoro-3-prop-1-en-1-ylphenyl)-3-methyl-3,5-dihydro-4H-imidazol-4-one]	110 to 1000	
CN1C(=O)C(c2ccc(OC(F)F)cc2)(c2cccc(Nc3ccccc3)c2)N=C1N (stereo not shown) [Example 60, 2-amino-5-(3-anilinophenyl)-5-[4-(difluoromethoxy)phenyl]-3-methyl-3,5-dihydro-4H-imidazol-4-one]	110 to 1000	
CN1C(=O)C(c2ccc(OC(F)F)cc2)(c2cccc(NC3CCCCC3)c2)N=C1N (stereo not shown) [Example 48]	110 to 1000	
CN1C(=O)C(c2ccc(OC(F)F)cc2)(c2ccc(OC(F)F)cc2)N=C1N [Example 67, 2-amino-5,5-bis[4-(difluoromethoxy)phenyl]-3-methyl-3,5-dihydro-4H-imidazol-4-one]	> 1000	

— patent US7723368B2, “Amino-5-[4-(difluoromethoxy)phenyl]-5-phenylimidazolone compounds for the inhibition of beta-secretase” (Wyeth LLC, priority 2007, dated 2010)
